From ChEMBL document CHEMBL1201862, “PubChem BioAssay data set” (2004)
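Tested at 5 concentrations; 48 h exposure; 96-well plates; endpoints linearly interpolated, else capped at highest concentration. GI50: concentration for 50% inhibition of growth.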 Calls of active or inactive are those of the source. No stated cut-off is given here; in the data, active = GI50 up to about 1.1 µM and inactive = higher.

Assays:
Test in all cases: growth of human tumour cells (NCI), 48 h
HOP-62 = system: HOP-62
HT-29 = system: HT-29
UACC-62 = system: UACC-62
UO-31 = system: UO-31
LOX IMVI = system: LOX IMVI
OVCAR-8 = system: OVCAR-8
OVCAR-5 = system: OVCAR-5
MDA-MB-231 = system: MDA-MB-231
NCI-H522 = system: NCI-H522
SW-620 = system: SW-620
UACC-257 = system: UACC-257
TK-10 = system: TK-10
ACHN = system: ACHN
MDA-MB-435 = system: MDA-MB-435
MDA-N = system: MDA-N
HCT-15 = system: HCT-15
CCRF-CEM = system: CCRF-CEM
NCI-H460 = system: NCI-H460
SF-539 = system: SF-539
HCC 2998 = system: HCC 2998

Row | Structure (SMILES) | GI50 (HOP-62) | GI50 (HT-29) | GI50 (UACC-62) | GI50 (UO-31) | GI50 (LOX IMVI) | GI50 (OVCAR-8) | GI50 (OVCAR-5) | GI50 (MDA-MB-231) | GI50 (NCI-H522) | GI50 (SW-620) | GI50 (UACC-257) | GI50 (TK-10) | GI50 (ACHN) | GI50 (MDA-MB-435) | GI50 (MDA-N) | GI50 (HCT-15) [µM] | GI50 (CCRF-CEM) | GI50 (NCI-H460) | GI50 (SF-539) | GI50 (HCC 2998)
1 | CC(C)(C)OC(=O)CCC1NC(=O)[C@@H]2Cc3c([nH]c4ccccc34)C(C3CCCCC3)N2C1=O (stereo partly drawn) | 35.6 µM (inactive) | 18.6 µM (inactive) | 45.3 µM (inactive) | 41.5 µM (inactive) | 26.4 µM (inactive) | 50.4 µM (inactive) | 53.2 µM (inactive) | 22 µM (inactive) | 30.3 µM (inactive) | 44.4 µM (inactive) | 29.4 µM (inactive) | 34.7 µM (inactive) | 33.3 µM (inactive) | 30.8 µM (inactive) | 24.5 µM (inactive) | 34.6 |  |  |  | 
2 | C=C1c2nc3ccccc3n2C=C(c2ccc(C)cc2)N1c1ccc(OC)cc1 | > 100 µM (inactive) | 8.89 µM (inactive) | 51.3 µM (inactive) | 44.5 µM (inactive) | 50.1 µM (inactive) | 75.5 µM (inactive) | > 100 µM (inactive) | > 100 µM (inactive) | 7.52 µM (inactive) | 13.6 µM (inactive) | > 89.1 µM (inactive) | > 83.4 µM (inactive) | 61.5 µM (inactive) | 3.04 µM (inactive) |  | 9.51 | 34.4 µM (inactive) | 59.8 µM (inactive) | > 69.5 µM (inactive) | 31.8 µM (inactive)
3 | Fc1cc(-c2cc(-c3ccc4c(c3)OCO4)n[nH]2)c(Cl)cc1Cl | 2.29 µM (inactive) | 4 µM (inactive) | 1.46 µM (inactive) | 2.51 µM (inactive) | 2.95 µM (inactive) | 1.85 µM (inactive) | 3.28 µM (inactive) | 1.75 µM (inactive) | 4.1 µM (inactive) | 4.6 µM (inactive) | 9.82 µM (inactive) | 3 µM (inactive) | 1.95 µM (inactive) | 4.88 µM (inactive) |  | 7.71 | 11.9 µM (inactive) | 3.61 µM (inactive) | 2.31 µM (inactive) | 4.94 µM (inactive)
4 | O=c1ccn(C2OC(CN(O)CCC3C(CO)OC(n4ccc(=O)[nH]c4=O)C3O)C(O)C2O)c(=O)[nH]1 (stereo not drawn) | > 100 µM (inactive) | > 100 µM (inactive) | > 100 µM (inactive) | > 100 µM (inactive) |  | > 100 µM (inactive) | > 100 µM (inactive) | > 100 µM (inactive) |  | > 100 µM (inactive) | > 100 µM (inactive) | > 100 µM (inactive) | > 100 µM (inactive) | > 100 µM (inactive) | > 100 µM (inactive) | > 100 | > 100 µM (inactive) | > 100 µM (inactive) |  | > 100 µM (inactive)
5 | COc1ccccc1-c1cc(=O)c2ccccc2n1C1CC1 | 3.95 µM (inactive) | 0.0782 µM (active) | 2.77 µM (inactive) | 3.85 µM (inactive) | 3.89 µM (inactive) | 3.79 µM (inactive) | 2.72 µM (inactive) | 3.76 µM (inactive) | 0.865 µM (active) | 3.13 µM (inactive) | 8.2 µM (inactive) |  | 2.2 µM (inactive) | 3.42 µM (inactive) | 4.06 µM (inactive) | 2.55 | 4.83 µM (inactive) | 2.74 µM (inactive) | 4.6 µM (inactive) | 
6 | C[N+]1(C)CCC(C#N)(c2ccccc2)CC1 | > 100 µM (inactive) | > 100 µM (inactive) |  | > 100 µM (inactive) |  | > 100 µM (inactive) | > 100 µM (inactive) |  |  | > 100 µM (inactive) | > 100 µM (inactive) | > 100 µM (inactive) | > 100 µM (inactive) |  | > 100 µM (inactive) | > 100 | 0.65 µM (active) | > 100 µM (inactive) |  | > 100 µM (inactive)
7 | CCN(CC)CCCC(C)Nc1cc(/C=C/c2ccc(Cl)cc2)nc2cc(N(C)C)ccc12 (stereo not drawn) | 1.89 µM (inactive) | 1.34 µM (inactive) | 2.52 µM (inactive) | 2.04 µM (inactive) |  | 1.86 µM (inactive) | 1.94 µM (inactive) | 1.22 µM (inactive) |  | 1.33 µM (inactive) |  | 1.91 µM (inactive) | 2.11 µM (inactive) | 1.67 µM (inactive) | 1.47 µM (inactive) | 1.67 | 1.21 µM (inactive) | 1.67 µM (inactive) | 2.15 µM (inactive) | 2.07 µM (inactive)
8 | Nc1ccc2nc3n(c(=O)c2c1)CCCCC3 | > 100 µM (inactive) | > 100 µM (inactive) | > 100 µM (inactive) | > 100 µM (inactive) | > 100 µM (inactive) | > 100 µM (inactive) | > 100 µM (inactive) | > 100 µM (inactive) | > 100 µM (inactive) | > 100 µM (inactive) | > 100 µM (inactive) | > 100 µM (inactive) | > 100 µM (inactive) | > 100 µM (inactive) | > 100 µM (inactive) | > 100 | > 100 µM (inactive) | > 100 µM (inactive) | > 100 µM (inactive) | 
9 | CN1CCN(c2n[nH]c(=O)c3c2nnn3Cc2ccccc2)CC1 | > 100 µM (inactive) | 38 µM (inactive) |  | 71.6 µM (inactive) | > 100 µM (inactive) | > 100 µM (inactive) |  | > 100 µM (inactive) |  |  | > 100 µM (inactive) | > 100 µM (inactive) | > 100 µM (inactive) | > 100 µM (inactive) | 0.482 µM (active) | > 100 | > 100 µM (inactive) | > 100 µM (inactive) |  | > 100 µM (inactive)
10 | Cc1ccsc1/C=N/Nc1ncccn1 | > 100 µM (inactive) | > 100 µM (inactive) | > 100 µM (inactive) | > 100 µM (inactive) | > 100 µM (inactive) | > 100 µM (inactive) | > 100 µM (inactive) | > 100 µM (inactive) |  | > 100 µM (inactive) | > 100 µM (inactive) | > 100 µM (inactive) | > 100 µM (inactive) | > 100 µM (inactive) | > 100 µM (inactive) | > 100 | > 100 µM (inactive) |  |  | > 100 µM (inactive)
11 | BrCC[P+](c1ccccc1)(c1ccccc1)c1ccccc1 | 6.68 µM (inactive) | 13.3 µM (inactive) | 6.58 µM (inactive) | 4.75 µM (inactive) | 4.23 µM (inactive) | 3.1 µM (inactive) | 10.8 µM (inactive) | 18.3 µM (inactive) |  | 2.51 µM (inactive) | 3.7 µM (inactive) | 16.9 µM (inactive) | 3.18 µM (inactive) | 2.84 µM (inactive) | 2.61 µM (inactive) | 32.7 | 2.25 µM (inactive) | 19.5 µM (inactive) | 15 µM (inactive) | 9.42 µM (inactive)
12 | O=C(/C=C/c1ccc(Cl)c(Cl)c1)CCN1CCN(CCC(=O)/C=C/c2ccc(Cl)c(Cl)c2)CC1 | 21.9 µM (inactive) | 17.7 µM (inactive) | 19.6 µM (inactive) | 16.8 µM (inactive) | 13 µM (inactive) | 33.7 µM (inactive) | 19.2 µM (inactive) | 25 µM (inactive) | 8.13 µM (inactive) | 18.2 µM (inactive) | 33 µM (inactive) | 18 µM (inactive) | 16.9 µM (inactive) | 21.8 µM (inactive) |  | 13.8 | 6.59 µM (inactive) | 17.2 µM (inactive) | 14.4 µM (inactive) | 14.1 µM (inactive)
13 | CSc1ccc(/C=C2\N=C(c3ccccc3)N(c3nc4cc(C)c(C)cc4s3)C2=O)cc1 | 23.6 µM (inactive) | 22.2 µM (inactive) | 28.1 µM (inactive) | 28.9 µM (inactive) | 19.8 µM (inactive) | 20.3 µM (inactive) | 26.2 µM (inactive) | 24.6 µM (inactive) |  | 17.9 µM (inactive) | 43.3 µM (inactive) | 94.4 µM (inactive) | 24.9 µM (inactive) | 12.9 µM (inactive) | 13.6 µM (inactive) | 40.7 | 9.35 µM (inactive) | 36.3 µM (inactive) | 21.3 µM (inactive) | 32.1 µM (inactive)
14 | COC1=CC(=O)C2=C(C1=O)[C@H]1CC[C@]3(C)[C@@H](OC(C)=O)CC[C@H]3[C@@H]1CC2 | > 100 µM (inactive) | 20.8 µM (inactive) |  | > 100 µM (inactive) | 15.1 µM (inactive) | 23.9 µM (inactive) | 37.8 µM (inactive) | 17 µM (inactive) | > 100 µM (inactive) | > 100 µM (inactive) | 27.1 µM (inactive) | > 100 µM (inactive) | 35.1 µM (inactive) | 19.2 µM (inactive) | 28.6 µM (inactive) | 49.5 | 25.4 µM (inactive) | 71 µM (inactive) | 75.3 µM (inactive) | 
15 | COC(=O)C(NC(=O)c1ccccc1)c1ccco1 (stereo not drawn) | > 100 µM (inactive) | > 100 µM (inactive) | > 100 µM (inactive) | > 100 µM (inactive) |  | > 100 µM (inactive) | > 100 µM (inactive) |  |  | > 100 µM (inactive) | > 100 µM (inactive) | > 100 µM (inactive) | > 100 µM (inactive) | > 100 µM (inactive) | > 100 µM (inactive) | > 100 | > 100 µM (inactive) | > 100 µM (inactive) | > 100 µM (inactive) | > 100 µM (inactive)
16 | N[C@H]1CCC[C@@H](O)C1O (stereo partly drawn) | > 100 µM (inactive) | > 100 µM (inactive) | > 100 µM (inactive) |  | > 100 µM (inactive) | > 100 µM (inactive) | > 100 µM (inactive) | > 100 µM (inactive) |  | > 100 µM (inactive) | > 100 µM (inactive) |  | > 100 µM (inactive) | > 100 µM (inactive) | > 100 µM (inactive) | > 100 |  | > 100 µM (inactive) |  | > 100 µM (inactive)
